Read-outs that look alike come from different tables or passages of the source.
Target: T1, sirtuin protein (Homo sapiens, UniProt Q96EB6)
T1 sequence (Q96EB6 2-747 limits assumed): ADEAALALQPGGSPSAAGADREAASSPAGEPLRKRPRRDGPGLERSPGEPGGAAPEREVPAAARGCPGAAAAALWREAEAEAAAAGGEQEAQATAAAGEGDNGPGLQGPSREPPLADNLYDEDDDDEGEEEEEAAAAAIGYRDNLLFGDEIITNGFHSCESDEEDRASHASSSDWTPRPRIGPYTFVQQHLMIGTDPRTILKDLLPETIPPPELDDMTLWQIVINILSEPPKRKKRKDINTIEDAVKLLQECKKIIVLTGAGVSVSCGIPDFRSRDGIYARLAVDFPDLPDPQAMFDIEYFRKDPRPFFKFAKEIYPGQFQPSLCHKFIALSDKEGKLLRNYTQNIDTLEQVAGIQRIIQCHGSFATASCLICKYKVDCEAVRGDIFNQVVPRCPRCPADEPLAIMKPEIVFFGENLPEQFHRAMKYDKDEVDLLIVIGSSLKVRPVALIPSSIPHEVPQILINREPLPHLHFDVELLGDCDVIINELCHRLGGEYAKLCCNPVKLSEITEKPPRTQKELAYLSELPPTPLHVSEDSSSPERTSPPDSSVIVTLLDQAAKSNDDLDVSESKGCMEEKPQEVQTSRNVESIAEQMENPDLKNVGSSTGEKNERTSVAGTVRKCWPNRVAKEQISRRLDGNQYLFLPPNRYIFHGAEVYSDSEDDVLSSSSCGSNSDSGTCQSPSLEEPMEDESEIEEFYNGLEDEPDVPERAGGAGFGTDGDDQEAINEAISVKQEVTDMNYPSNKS
Assay: MS assay (IC50 MS ASSAY / ED50 MS / FOLD ACTIVATION MS)
Type: biochemical
Design: scale not given here

[1] = Table 4, class symbols A′, A, B, D, NA, legend not given
[2] = class symbols (A′, A, B, D, NA), no legend given
[3] = MS assay, class symbols A′, A, B, D, NA, legend not given
[4] = MS assay, class symbols, key not given
[5] = Table 4, class symbols A′, A, B, C, NA, legend not given
[6] = Table 4, class symbols, legend not given

Row | SMILES | ED50 MS ASSAY | ED50 MS ASSAY (Table 4) | ED50 MS ASSAY (Table 4, class symbols) | ED50 MS ASSAY [1] | ED50 MS ASSAY [2] | ED50 MS ASSAY [3] | ED50 MS ASSAY [4] | ED50 MS ASSAY (TABLE 4) | ED50 MS ASSAY [5] | ED50 MS ASSAY [6] | ED50 MS ASSAY (class symbols, no key given)
1 | CN(C)c1ccc(C(=O)Nc2ccccc2-c2nc3cccnc3[nH]2)cc1 [Compound 534] | A′ | A′ | A′ | A′ | A′ | – | – | – | – | – | –
2 | O=C(Nc1ccccc1-c1cn2c(n1)CCCC2)c1cnc2ccccc2n1 [Compound 548] | A′ | A′ | A′ | A′ | A′ | – | – | – | – | – | –
3 | COc1ccc(C(=O)Nc2ccccc2-c2nc3cccnc3[nH]2)cc1C(F)(F)F [Compound 528] | A′ | A′ | A′ | A′ | A′ | – | – | – | – | – | –
4 | COc1cc(C(=O)Nc2ccccc2-c2cn3cc(CN4CCNCC4)sc3n2)cc(OC)c1OC [Compound 271] | – | A′ | – | A′ | – | A′ | – | – | – | – | –
5 | Cc1csc2nc(-c3ccccc3NC(=O)c3cnc4ccccc4n3)cn12 [Compound 707] | A′ | A′ | – | – | – | – | A′ | A′ | A′ | – | –
6 | COc1ccc(C(=O)Nc2ccc(-c3nc4ccccc4[nH]3)cc2)cc1OC [Compound 294] | – | A′ | – | A′ | – | A′ | – | – | – | – | –
7 | CN(C)CCOCc1csc2nc(-c3ccccc3NC(=O)c3cnc4ccccc4n3)cn12 [Compound 647] | A′ | A′ | A′ | A′ | A′ | – | – | – | – | – | –
8 | COc1ccc(C(=O)Nc2ccc(-c3cc4cccnc4o3)cc2)c(OC)c1 [Compound 190] | – | A′ | – | – | – | – | – | A′ | – | A′ | A′
9 | COc1ccc(C(=O)Nc2ccc(-c3nc4cnccc4o3)s2)cc1OC [Compound 423] | – | A′ | – | A′ | – | A′ | – | – | – | – | –
10 | O=C(Nc1ccccc1-c1cn2c(Cn3ccnc3)csc2n1)c1cnc2ccccc2n1 [Compound 745] | A′ | A′ | – | – | – | – | A′ | A′ | A′ | – | –
11 | O=C(Nc1ccccc1-c1nc2cccnc2[nH]1)c1cccc(OC(F)(F)F)c1 [Compound 529] | A′ | A′ | A′ | A′ | A′ | – | – | – | – | – | –
12 | O=C(Nc1ncccc1-c1cn2c(CN3CCOCC3)csc2n1)c1cnc2ccccc2n1 [Compound 621] | A′ | A′ | A′ | A′ | A′ | – | – | – | – | – | –
13 | COc1cc(C(=O)Nc2ccccc2-c2cn3cc(CN(C)C)sc3n2)cc(OC)c1OC [Compound 179] | – | A′ | – | – | – | – | – | A′ | – | A′ | A′
14 | COc1ccc(C(=O)Nc2cccc(-c3nc4ccccc4[nH]3)c2)c(OC)c1 [Compound 211] | – | A′ | – | – | – | – | – | A′ | – | A′ | A′
15 | COc1cc(OC)cc(C(=O)Nc2ccccc2-c2nc3cc(CN(C)C)cnc3s2)c1 [Compound 722] | A′ | A′ | – | – | – | – | A′ | A′ | A′ | – | –
16 | COc1cc(C)ccc1C(=O)Nc1cccc(-c2nc3cccnc3[nH]2)c1 [Compound 182] | – | A′ | – | – | – | – | – | A′ | – | A′ | A′
17 | O=C(Nc1ccccc1-c1cn2c(n1)CCCC2)c1ccc2ccccc2n1 [Compound 547] | A′ | A′ | A′ | A′ | A′ | – | – | – | – | – | –
18 | COc1cc(OC)cc(C(=O)Nc2ccccc2-c2nc3cccnc3[nH]2)c1 [Compound 521] | A′ | A′ | A′ | A′ | A′ | – | – | – | – | – | –

More lines, now with the values ahead:

Row | ED50 MS ASSAY | ED50 MS ASSAY (Table 4) | ED50 MS ASSAY (Table 4, class symbols) | ED50 MS ASSAY [1] | ED50 MS ASSAY [2] | ED50 MS ASSAY [3] | ED50 MS ASSAY [4] | ED50 MS ASSAY (TABLE 4) | ED50 MS ASSAY [5] | ED50 MS ASSAY [6] | ED50 MS ASSAY (class symbols, no key given) | SMILES
19 | – | A′ | – | A′ | – | A′ | – | – | – | – | – | COc1ccc(C(=O)Nc2cccc(-c3nc4cnccc4s3)c2)c(OC)c1 [Compound 272]
20 | A′ | A′ | A′ | A′ | A′ | – | – | – | – | – | – | O=C(Nc1ccccc1-c1cn2c(CN3CCNCC3)csc2n1)c1c[nH]nc1-c1ccccc1 [Compound 512]
21 | – | A′ | – | A′ | – | A′ | – | – | – | – | – | COc1cc(C(=O)Nc2ccccc2-c2nc3cnccc3s2)cc(OC)c1OC [Compound 319]
22 | – | – | A′ | – | – | – | – | – | – | – | – | Cc1cc(C)cc(C(=O)Nc2ccccc2-c2nc3ncccc3o2)c1 [Compound 481]
23 | A′ | A′ | A′ | A′ | A′ | – | – | – | – | – | – | Cc1ccc(C(=O)Nc2ccccc2-c2nc3cc(CN4CCNCC4)cnc3s2)cc1C [Compound 591]
24 | A′ | A′ | – | – | – | – | A′ | A′ | A′ | – | – | O=C(Nc1ccccc1-c1cn2c(CN3CCNCC3)csc2n1)c1ccc(-c2ccccc2)cc1 [Compound 708]
25 | – | A′ | – | A′ | – | A′ | – | – | – | – | – | COc1ccc(C(=O)Nc2ccccc2-c2cc3ccccc3[nH]2)cc1OC [Compound 254]
26 | – | A′ | – | – | – | – | – | A′ | – | A′ | A′ | COc1ccc(C(=O)Nc2cccc(-c3nc4ncccc4s3)c2)c(OC)c1 [Compound 202]
27 | A′ | A′ | – | – | – | – | A′ | A′ | A′ | – | – | O=C(Nc1ccccc1-c1nc2cc(CN3CCOCC3)cnc2s1)c1ccc2ccccc2n1 [Compound 724]
28 | – | A′ | – | A′ | – | A′ | – | – | – | – | – | COc1ccc(C(=O)Nc2ccccc2-c2nc3cnccc3s2)c(OC)c1 [Compound 317]
29 | A′ | A′ | A′ | A′ | A′ | – | – | – | – | – | – | O=C(Nc1ccccc1-c1cn2c(CN3CCNCC3)csc2n1)c1cc2ccccc2o1 [Compound 624]
30 | A′ | A′ | – | – | – | – | A′ | A′ | A′ | – | – | NC1CCN(Cc2csc3nc(-c4ccccc4NC(=O)c4cnc5ccccc5n4)cn23)CC1 [Compound 716]
31 | – | A′ | – | A′ | – | A′ | – | – | – | – | – | Cc1c(C(=O)Nc2ccccc2-c2cn3c(CN4CCNCC4)csc3n2)oc2ccccc12 [Compound 442]
32 | A′ | A′ | – | – | – | – | A′ | A′ | A′ | – | – | COc1ccc(-c2cc(C(=O)Nc3ccccc3-c3cn4c(CN5CCNCC5)csc4n3)[nH]n2)cc1 [Compound 735]
33 | – | A′ | – | A′ | – | A′ | – | – | – | – | – | COc1ccc(C(=O)Nc2ccccc2-c2nc3ccncc3o2)c(OC)c1 [Compound 455]
34 | – | A′ | – | A′ | – | A′ | – | – | – | – | – | COc1ccc(C(=O)Nc2cccc(-c3nc4ccncc4o3)c2)c(OC)c1 [Compound 429]
35 | A′ | A′ | – | – | – | – | A′ | A′ | A′ | – | – | O=C(Nc1ccccc1-c1cn2c(CN3CCNCC3)csc2n1)c1cccc(-c2ccccc2)c1 [Compound 710]
36 | A′ | A′ | – | – | – | – | A′ | – | A′ | – | – | N#Cc1cccc(C(=O)Nc2ccccc2-c2nc3cc(CN4CCOCC4)cnc3s2)c1 [Compound 685]
37 | A′ | A′ | A′ | A′ | A′ | – | – | – | – | – | – | CN(C)c1cccc(C(=O)Nc2ccccc2-c2nc3cc(CN4CCNCC4)cnc3s2)c1 [Compound 593]
38 | A′ | A′ | A′ | A′ | A′ | – | – | – | – | – | – | COc1cccc(C(=O)Nc2ccccc2-c2nc3cccnc3[nH]2)c1C [Compound 530]
39 | – | A′ | – | A′ | – | A′ | – | – | – | – | – | CN(C)c1cccc(C(=O)Nc2ccccc2-c2nc3ccncc3o2)c1 [Compound 458]
40 | – | A′ | – | A′ | – | A′ | – | – | – | – | – | CN(C)c1cccc(C(=O)Nc2cccc(-c3nc4cnccc4s3)c2)c1 [Compound 402]

— US20100168084A1, “Therapeutic compounds and related methods of use” (priority 2008, published 2010)
